Experimental data as given in US7323541B2, “Polypeptide DNA thereof and use of the same” (Takeda Pharmaceutical Company Limited, priority 2001, dated 2008).
Changes are numbered by the printed parent chain. Where no end group is shown, it is not given here.

Tests used:
[1] = target: T1, TGR23-2 expressing CHO cells (Homo sapiens, UniProt Q6W5P4, N107I/Q344R); assay: Intracellular Ca ion concentration increasing activity using FLIPR; format: cell-based; settings: variety of concentrations
T1 construct: the clones having the cDNA of TGR23-2, which is contained in pTB2174, were selected; expressed in transfected cells; host or cells: hamster CHO/dhfr- cells, vector pAKKO-111H (pAKKO-TGR23-2)
T1 sequence (Q6W5P4 1-371 N107I/Q344R): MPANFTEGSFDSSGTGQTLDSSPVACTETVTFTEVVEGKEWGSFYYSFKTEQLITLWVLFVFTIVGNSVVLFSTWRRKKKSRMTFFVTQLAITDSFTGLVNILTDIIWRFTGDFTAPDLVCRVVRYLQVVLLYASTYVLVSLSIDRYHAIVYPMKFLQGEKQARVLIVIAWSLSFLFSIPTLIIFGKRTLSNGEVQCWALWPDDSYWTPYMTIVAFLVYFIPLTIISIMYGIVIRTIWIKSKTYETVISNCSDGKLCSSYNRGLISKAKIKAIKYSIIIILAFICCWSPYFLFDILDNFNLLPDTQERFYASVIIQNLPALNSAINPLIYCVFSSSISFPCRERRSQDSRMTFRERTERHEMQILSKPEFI
Procedure: (§1) An enhancing activity of intracellular Ca^2+ release was assayed using FLIPR (Molecular Devices, Inc.). The CHO/TGR23-2 cells prepared in Example 1 and selected in Example 2 were plated on 96-well plate at 3×10^4 cells/well and cultured for 24 hours. A loading buffer was prepared by adding 1 vial of Fluo 3-AM to 10 ml of Hanks' solution (pH7.4) containing 2.5 mM Probenecid and 20 mM HEPES (hereafter, Hanks' solution (pH7.4) containing 2.5 mM Probenecid and 20 mM HEPES may be referred to as a washing buffer). The culture medium was discarded from the culture plate and 100 μl/well of the loading buffer were added to the cells. Then, the cells were incubated for 60 minutes in the incubator. After the loading buffer was removed from the culture plate and the cells were washed with the washing buffer, the plate was put in place of FLIPR. A sample was prepared by adding a sample buffer, which 2 mg/ml BSA and 1 mg/ml CHAPS were added to the washing buffer, to lyophilized product, stirring and treating by ultrasonication for 30 minutes, and transferred to 96-well sample plate. This sample plate was also put in place for assay. The enhancing activity of intracellular Ca^2+ release was measured as an increase of fluorescent intensity, which is raised by addition of the sample. Human TGR23-2 ligand (1-20) obtained in Example 17 was administered to TGR23-1 expressing CHO cells and TGR23-2 expressing CHO cells at a variety of concentrations according to the method described in Example 5, and the increasing activity of intracellular Ca ion concentration was determined using FLIPR. […] Rat TGR23-2 ligand (1-18) prepared by the method described in Example 19 and mouse TGR23-2 ligand (1-20) prepared by the method described in Example 20 were administered to TGR23-1 expressing CHO cells and TGR23-2 expressing CHO cells at a variety of concentrations according to the method described in Example 5, and the increasing activity of intracellular Ca ion concentration was determined using FLIPR.

[2] = target: T2, TGR23-1 expressing CHO cells (Homo sapiens, UniProt Q6W5P4); assay: as above; format: cell-based; settings: variety of concentrations
T2 construct: the clones having the cDNA of TGR23-1, which is contained in pTB2173, were selected; expressed in transfected cells; host or cells: hamster CHO/dhfr- cells, vector pAKKO-111H (pAKKO-TGR23-1), clones No. 49 and No. 52
T2 sequence (Q6W5P4 1-371): T1 sequence (Q6W5P4 1-371 N107I/Q344R) with I107N, R344Q
Procedure: as §1

[3] = target: T3, membrane fraction of TGR23-2 expressing CHO cells (Homo sapiens, UniProt Q6W5P4, N107I/Q344R); assay: GTPγS binding activity in membrane fraction; format: biochemical
T3 construct: the clones having the cDNA of TGR23-2, which is contained in pTB2174, were selected; expressed in transfected cells; host or cells: hamster CHO/dhfr- cells, vector pAKKO-111H (pAKKO-TGR23-2)
T3 sequence (Q6W5P4 1-371 N107I/Q344R): T1 sequence (Q6W5P4 1-371 N107I/Q344R)
Procedure: Enhancing activity of binding of [^35S]-Guanosine 5′-(γ-thio) triphosphate in the membrane fraction of TGR23-2 expressing CHO cells was measured by the following method. Firstly, it is described about preparation of membrane fraction. Twenty (20) ml of homogenation buffer (10 mM HEPES (pH7.3), 5 mM EDTA, 0.52 mM PMSF, 10 μg/ml pepstatin, 8 μg/ml E64, 20 μg/ml leupeptin) was added to 8×10^7 of TGR23-2 expressing CHO cells, and the cells were disrupted using Polytron (12,000 rpm, 30 seconds×3 times). The cell-disrupted fluids were centrifuged (1,000 g for 15 minutes) to get supernatant. Subsequently the supernatant was ultracentrifuged (Beckman type 30 rotor, 30,000 rpm, one hour), and the precipitate obtained was collected as a membrane fraction of TGR23-2 expressing CHO cells. The GTPγS binding activity was assayed as follows. The membrane fraction of TGR23-2 expressing CHO cells was diluted with membrane dilution buffer (50 mM Tris-HCl buffer (pH7.4), 5 mM MgCl2, 150 mM NaCl, 0.03% NaN3, 0.1% BSA, 1 μM GDP) to get cell membrane fraction solution for assay at the protein concentration of […]. Two (2) μl of 50 nM [^35S]-guanosine 5′-(γ-thio) triphosphate (NEN) and sample were added to 200 μl of cell membrane fraction solution for assay, and the mixture was incubated at 25° C. for one (1) hour. The mixture was filtered, and the filter was washed twice with 1.5 ml of washing buffer (50 mM Tris-HCl buffer (pH7.4), 5 mM MgCl2, 1 mM EDTA, 0.03% NaN3, 0.1% BSA). Then the radioactivity on the filter was measured by liquid scintillation counter. Human TGR23-2 ligand (1-20) prepared by the method described in Example 17, rat TGR23-2 ligand (1-18) prepared by the method described in Example 19 and mouse TGR23-2 ligand (1-20) prepared by the method described in Example 20 were administered to TGR23-2 expressing CHO cells at a variety of concentrations according to the method described above, and the GTPγS binding activity was determined.

[4] = target: T1, TGR23-2 expressing CHO cells; assay: Enhancing activity of intracellular cAMP production; format: cell-based; settings: with forskolin
Procedure: The CHO/TGR23-2 cells prepared in Example 1 and selected in Example 2 were plated on 24-well plate at 7×10^4 cells/well and cultured for 48 hours. The cells were washed with αMEM medium (pH7.5) containing 0.2 mM 3-isobutyl-methylxanthine, 0.05% BSA and 20 mM HEPES (hereafter, αMEM medium (pH7.5) containing 0.2 mM 3-isobutyl-methylxanthine, 0.05% BSA and 20 mM HEPES may be referred to as a reaction buffer). Subsequently, 0.5 ml of the reaction buffer was added, and the solution was incubated for 30 minutes in the incubator. The reaction buffer was removed and 0.25 ml of the reaction buffer was freshly added to the cells. Then, the cells were admixed with a sample and 0.25 ml of the reaction buffer containing 2 μM forskoline, and incubated at 37° C. for 30 minutes. Intracellular cAMP was extracted by removing the reaction solution and adding 0.5 ml of the solution for cell lysis attached with cAMP EIA Kit (Applied Biosystems). The cAMP level in the extract was quantified with the same kit. Based on this measured value, a calculation was made using the following formula, and the enhancing/inhibiting activity for cAMP production was represented by % of control. The activity of the sample-adding group was calculated using a control value configured in each plate. % of control=(X−C)/(T−C)×100
X: The cAMP level in the sample-adding group
T: The means of the cAMP level in 3 wells of positive control (no sample, with stimulus of forskoline)
C: The means of the cAMP level in 3 wells of negative control (no sample, without stimulus of forskoline)
In addition, for the same sample, in accordance with the method shown in Example 4, an arachidonic acid metabolite releasing activity was assayed.
Four microlitters each of the above-mentioned HPLC active fractions of rat whole brain extracts (Fraction numbers 18, 20 and 22 to 23) was added to 100 μl of 0.2 M ammonium acetate and incubated at 37° C. for 2 hours with 3 μg of Pronase. Subsequently, Pronase added, was inactivated by heating in boiling water for 10 minutes. To this solution, one ml of distilled water containing 0.05 mg of BSA and 0.05 mg of CHAPS was added. Further, it was lyophilized. For the lyophilized sample, enhancing activity for intracellular cAMP production was assayed by adding to TGR23-2 expressing CHO cells according to the method shown in Example 3.
Human TGR23-2 ligand (1-20) prepared by the method described in Example 17 was administered to TGR23-1 expressing CHO cells and TGR23-2 expressing CHO cells at a variety of concentrations according to the method described in Example 3, and the enhancing activity of intracellular cAMP production was determined.
Further, human TGR23-2 ligand (1-20) and rat TGR23-2 ligand (1-18) prepared by the method described in Example 19 were administered to TGR23-1 expressing CHO cells and TGR23-2 expressing CHO cells at a variety of concentrations, and the same assay as described above was carried out under the condition of no forskolin. A calculation was made using the following formula, and the enhancing activity for cAMP production was represented by % of control: % of control=X/C×100;
X: The cAMP level in the sample-adding group; and
C: Control (no sample, without stimulus of forskoline).

Sequence | increase of intracellular Ca ion concentration [1] | increase of intracellular Ca ion concentration [2] | GTPγS binding activity [3] | enhancing activity of intracellular cAMP production [4]
SFRNGVGSGAKKTSFRRAKQ [mouse TGR23-2 ligand (1-20)] | clearly enhance an increase of intracellular Ca ion concentration | clearly enhance an increase of intracellular Ca ion concentration | enhance the GTPγS binding activity | –
SFRNGVGSGVKKTS (Rat) [rat TGR23-2 ligand (1-14)] | – | – | – | specifically exhibits an enhancing activity for cAMP production
SFRNGVGSGVKKTSF (Rat) [rat TGR23-2 ligand (1-15)] | – | – | – | specifically exhibits an enhancing activity for cAMP production
